Assay results taken from patent publication US20250206729A1, “DUAL RAF AND TUBULIN INHIBITORS AND METHODS OF USE THEREOF” (Deciphera Pharmaceuticals, LLC, priority 2023, published 2025).

Experiments:
[1] = biological target: T1, B-Raf kinase (SEQ ID NO: 1) (Homo sapiens, UniProt P15056); assay: Biochemical assay for B-Raf (coupled pyruvate kinase/lactate dehydrogenase); settings: 1 mM ATP; read-out: BRAF (inhibition of biochemical activity, IC50)
T1 construct: GST (N); purchased Sigma

[2] = biological target: T2, C-Raf kinase (SEQ ID NO: 2) (Homo sapiens, UniProt P04049, Y340D/Y341D); assay: Biochemical assay for C-Raf (coupled pyruvate kinase/lactate dehydrogenase); settings: 1 mM ATP; read-out: CRAF (inhibition of biochemical activity, IC50)
T2 construct: C-Raf residues 306-end; Y340D, Y341D with N-; GST (N); purchased Sigma

MiaPaca-2 cells = assay: MiaPaca-2 cell proliferation assay; type: cell-based; settings: Homo sapiens, MIA PaCa-2; 67-72 h incubation, resazurin; read-out: MiaPaca-2 (inhibition of cell proliferation, IC50)
Protocol: Miapaca-2 cells (catalog #CRL-1420) are obtained from the American Type Culture Collect (ATTC, Manassas, VA). Briefly, cells were grown in DMEM supplemented with 10% characterized fetal bovine serum (Invitrogen, Carlsbad, CA), 2.5% New Zealand sourced horse serum and 1% Penicillin/Streptomycin/L-Glutamine at 37° C., 5% CO2, and 95% humidity. Cells are expanded until reaching 70-95% confluency at which point they are sub-cultured or harvested for assay use. A serial dilution of test compound is dispensed into a 384-well black clear bottom plate in triplicate. Seven hundred fifty cells are added per well in 50 μL complete growth medium in the 384-well plate. Plates are incubated for 67-72 h at 37° C., 5% CO2, and 95% humidity. At the end of the incubation, 10 μL of a 440 μM solution of resazurin (Sigma, St. Louis, MO) in PBS is added to each well of the plate and plates are incubated for an additional 5-6 h at 37° C., 5% CO2, and 95% humidity. Plates are read on a Synergy2 or equivalent reader (Biotek, Winooski VT) using an excitation of 540 nm and an emission of 600 nm. Data is analyzed using Prism software (GraphPad, San Diego, CA) to calculate IC50 values.

HCT-116 cells = assay: HCT-116 cell proliferation assay; type: cell-based; settings: Homo sapiens, HCT-116; 67 to 72 h incubation, resazurin; read-out: HCT-116 (inhibition of cell proliferation, IC50)
Protocol: HCT-116 cells (catalog #CCL-247) are obtained from the American Type Culture Collect (ATCC, Manassas, VA). Briefly, cells are grown in McCoy's 5A supplemented with 10% characterized fetal bovine serum (Invitrogen, Carlsbad, CA) and 1% Penicillin/Streptomycin/L-Glutamine at 37° C., 5% CO2, and 95% humidity. Cells are expanded until reaching 70-95% confluency at which point they are sub-cultured or harvested for assay use. A serial dilution of test compound is dispensed into a 384-well black clear bottom plate in triplicate. 375 cells are added per well in 50 μL complete growth medium in the 384-well plate. Plates are incubated for 67 to 72 h at 37° C., 5% CO2, and 95% humidity. At the end of the incubation, 40 μL of a […] solution of resazurin (Sigma, St. Louis, MO) in PBS is added to each well of the plate and plates are incubated for an additional 4 to 5 h at 37° C., 5% CO2, and 95% humidity. Plates are read on a Synergy2 or equivalent reader (Biotek, Winooski, VT) using an excitation of 540 nm and an emission of 600 nm. Data is analyzed using Prism software (Graphpad, San Diego, CA) to calculate IC50 values.

HPAF-II cells = assay: HPAF-II cell proliferation assay; type: cell-based; settings: Homo sapiens, HPAF-II; 115 to 120 h incubation, resazurin; read-out: HPAF-II (inhibition of cell proliferation, IC50)
Protocol: (§1) HPAF-II cells (catalog #CRL-1997) are obtained from the American Type Culture Collect (ATCC, Manassas, VA). Briefly, cells are grown in Minimum Essential Media supplemented with 10% characterized fetal bovine serum (Invitrogen, Carlsbad, CA) and 1% Penicillin/Streptomycin/L-Glutamine at 37° C., 5% CO2, and 95% humidity. Cells are expanded until reaching 70-95% confluency at which point they are sub-cultured or harvested for assay use. A serial dilution of test compound is dispensed into a 384-well black clear bottom plate in triplicate. 750 cells are added per well in 50 μL complete growth medium in the 384-well plate. Plates are incubated for 115 to 120 h at 37° C., 5% CO2, and 95% humidity. At the end of the incubation, 40 μL of a […] solution of resazurin (Sigma, St. Louis, MO) in PBS is added to each well of the plate and plates are incubated for an additional 18 to 24 h at 37° C., 5% CO2, and 95% humidity. Plates are read on a Synergy2 or equivalent reader (Biotek, Winooski, VT) using an excitation of 540 nm and an emission of 600 nm. Data is analyzed using Prism software (Graphpad, San Diego, CA) to calculate IC50 values.

Pa16c cells = assay: Pa16c cell proliferation assay; type: cell-based; settings: 67 to 72 h incubation, resazurin; read-out: Pa16c (inhibition of cell proliferation, IC50)
Protocol: as §1, with “Pa16c” for “HPAF-II”, “cells” for “cells (catalog #CRL-1997)”, “Dr. Channing Der, University of North Carolina at Chapel Hill.” for “the American Type Culture Collect (ATCC, Manassas, VA).”, “Dulbecco's Modified Eagle Medium” for “Minimum Essential Media”, “67” for “115”, “72” for “120”

T1 sequence (P15056 416-766): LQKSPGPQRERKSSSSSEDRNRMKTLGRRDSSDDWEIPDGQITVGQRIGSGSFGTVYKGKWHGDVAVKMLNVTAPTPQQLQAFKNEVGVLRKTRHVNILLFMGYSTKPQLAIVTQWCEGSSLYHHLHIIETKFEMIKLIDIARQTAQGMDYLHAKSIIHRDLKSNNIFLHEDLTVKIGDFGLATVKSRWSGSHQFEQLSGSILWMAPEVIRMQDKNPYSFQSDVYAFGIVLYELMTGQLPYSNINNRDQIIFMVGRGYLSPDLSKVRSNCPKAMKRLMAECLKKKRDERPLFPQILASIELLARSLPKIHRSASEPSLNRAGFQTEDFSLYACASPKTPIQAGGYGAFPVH
T2 sequence (P04049 307-648 Y340D/Y341D): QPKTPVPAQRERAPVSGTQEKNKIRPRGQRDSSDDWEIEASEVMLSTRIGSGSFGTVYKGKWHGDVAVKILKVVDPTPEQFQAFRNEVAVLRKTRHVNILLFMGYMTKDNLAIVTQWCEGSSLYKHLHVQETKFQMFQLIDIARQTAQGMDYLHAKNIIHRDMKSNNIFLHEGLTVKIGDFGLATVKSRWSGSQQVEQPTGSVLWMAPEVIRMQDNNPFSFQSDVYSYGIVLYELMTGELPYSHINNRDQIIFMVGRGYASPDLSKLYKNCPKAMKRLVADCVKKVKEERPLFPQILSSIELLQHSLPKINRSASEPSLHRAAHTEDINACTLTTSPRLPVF

Compound	IC50 [1] [nM]	IC50 [2] [nM]	IC50 (MiaPaca-2 cells) [nM]	IC50 (HCT-116 cells) [nM]	IC50 (HPAF-II cells) [nM]	IC50 (Pa16c cells) [nM]
Cc1ccc(NC(=O)c2cc(C3CCC3)cnn2)cc1-c1cc(OCCO)nc(N2CCOCC2)c1 [Example 50]	< 100	< 100	< 100	< 100	< 100	< 100
Cc1ccc(NC(=O)c2cc(C(C)C)cnn2)cc1-c1cncc(N2CCOCC2)c1 [Example 79]	100 to 500	< 100	1000 to 10000	1000 to 10000	1000 to 10000	1000 to 10000
Cc1ccc(NC(=O)c2cncc(Cl)n2)cc1-c1cc(N[C@H](C)CO)nc(N2CCOCC2)c1 [Example 9]	100 to 500	100 to 500	1000 to 10000	1000 to 10000	500 to 1000	1000 to 10000
Cc1ccc(NC(=O)c2cc(C(F)(F)F)cnn2)cc1-c1cc(N[C@H](C)CO)nc(N2C[C@H]3C[C@@H]2CO3)c1 [Example 93]	100 to 500	100 to 500	< 100	< 100	< 100	< 100
Cc1ccc(NC(=O)c2cc(C(C)C)cnn2)cc1-c1cccc(N2CCOCC2)c1 [Example 76]	100 to 500	< 100	1000 to 10000	1000 to 10000	1000 to 10000	1000 to 10000
CNc1cc(-c2cc(NC(=O)c3cc(C(F)(F)F)cnn3)ccc2C)cc(N2C[C@H]3C[C@@H]2CO3)n1 [Example 92]	100 to 500	100 to 500	< 100	< 100	< 100	< 100
Cc1ccc(NC(=O)c2cnc(N)nc2)cc1-c1cc(N[C@H](C)CO)nc(N2CCOCC2)c1 [Example 68]	1000 to 10000	500 to 1000	1000 to 10000	1000 to 10000	1000 to 10000	1000 to 10000
Cc1ccc(NC(=O)c2cc(C(C)C)cnn2)cc1-c1cc(OCCO)nc(N2CCOCC2)c1 [Example 39]	< 100	< 100	100 to 500	< 100	100 to 500	100 to 500
Cc1ccc(NC(=O)c2cncc(C(C)C)c2)cc1-c1cc(N[C@H](C)CO)nc(N2CCOCC2)c1 [Example 13]	< 100	< 100	500 to 1000	100 to 500	500 to 1000	1000 to 10000
Cc1ccc(NC(=O)c2cc(C(C)C)cnn2)cc1-c1ccnc(N2CCOCC2)n1 [Example 73]	1000 to 10000	100 to 500	1000 to 10000	500 to 1000	1000 to 10000	1000 to 10000
Cc1ccc(NC(=O)c2cc(C(C)C)cnn2)cc1-c1cncc(N2CCOCC2)n1 [Example 56]	100 to 500	100 to 500	1000 to 10000	1000 to 10000	1000 to 10000	1000 to 10000
Cc1ccc(NC(=O)c2cc(Cl)cnn2)cc1-c1ccnc(N2CCOCC2)c1 [Example 51]	1000 to 10000	500 to 1000	1000 to 10000	500 to 1000	500 to 1000	1000 to 10000

Now from value to compound, other results behind:

IC50 [1] [nM]	IC50 [2] [nM]	IC50 (MiaPaca-2 cells) [nM]	IC50 (HCT-116 cells) [nM]	Compound	IC50 (HPAF-II cells) [nM]	IC50 (Pa16c cells) [nM]
1000 to 10000	500 to 1000	500 to 1000	500 to 1000	Cc1ccc(NC(=O)c2cc(C3CC3)cnn2)cc1-c1nc(N[C@H](C)CO)cc(N2CCOCC2)n1 [Example 45]	500 to 1000	1000 to 10000
100 to 500	100 to 500	1000 to 10000	1000 to 10000	Cc1ccc(NC(=O)c2cc(C(C)C)cnn2)cc1-c1cc(N2CCOCC2)ncn1 [Example 72]	1000 to 10000	1000 to 10000
100 to 500	100 to 500	< 100	100 to 500	Cc1ccc(NC(=O)c2cc(C(F)(F)F)cnn2)cc1-c1cc(N[C@H](C)CO)nc(N2CCOCC2)n1 [Example 28]	< 100	< 100
< 100	< 100	< 100	< 100	Cc1ccc(NC(=O)c2cc(C3CC3)cnn2)cc1-c1cc(N[C@H](C)CO)nc(N2CCOCC2)c1 [Example 70]	< 100	< 100
100 to 500	500 to 1000	1000 to 10000	500 to 1000	Cc1ccc(NC(=O)c2cc(C3CC3)cnn2)cc1-c1cc(N2CCOCC2)ncn1 [Example 40]	500 to 1000	1000 to 10000
1000 to 10000	500 to 1000	100 to 500	100 to 500	Cc1ccc(NC(=O)c2cnc(C(F)(F)F)nc2)cc1-c1cc(OCCO)nc(N2CCOCC2)c1 [Example 11]	100 to 500	500 to 1000
< 100	< 100	< 100	< 100	Cc1ccc(NC(=O)c2cc(C(C)(F)F)cnn2)cc1-c1cc(OCCO)nc(N2CCOCC2)c1 [Example 63]	< 100	< 100
500 to 1000	100 to 500	< 100	< 100	Cc1ccc(NC(=O)c2cc(C#N)cnn2)cc1-c1cc(N[C@H](C)CO)nc(N2CCOCC2)c1 [Example 81]	< 100	< 100
1000 to 10000	1000 to 10000	100 to 500	100 to 500	Cc1ccc(NC(=O)c2cc(C(F)(F)F)cnn2)cc1-c1ccnc(N2CCOC(C(F)(F)F)C2)c1 (stereo not drawn) [Example 8]	500 to 1000	500 to 1000
< 100	< 100	100 to 500	100 to 500	Cc1cc(-c2cc(NC(=O)c3cc(C4CC4)cnn3)ccc2C)cc(N2CCOCC2)n1 [Example 20]	100 to 500	1000 to 10000
500 to 1000	100 to 500	1000 to 10000	100 to 500	Cc1ccc(NC(=O)c2cc(Cl)cnn2)cc1-c1cc(OCCO)nc(N2CCOCC2)c1 [Example 32]	1000 to 10000	500 to 1000
